From patent US20260115162A1, “COMPOSITION OR ASSOCIATION OF COMPOUNDS PREFERABLY FOR USE IN THE TREATMENT OF NERVOUS DISEASES IN PARTICULAR NEURODEGENERATIVE DISEASES, METHOD FOR THE PREPARATION OF SUCH COMPOSITION OR ASSOCIATION OF COMPOUNDS AND USES THEREOF” (PHARMACEUTICA SAN MARCO S.R.L., priority 2022, published 2026)
Entries after “also recorded” stand apart in the source; their conditions may differ. Read-outs that look alike come from different tables or passages of the source.

Legend:
[1] = Pharmacokinetics of βBA and AKBA via os in healthy volunteers, fasted and hyperlipidic meal (Sterk V et al. 2004); type: in vivo, humans; settings: healthy volunteers
From the text: Indeed, βBA has a concentration in the blood: • at least 6 times higher than AKBA both in the fasting condition and with a hyperlipidic meal; • increased by 6 times after hyperlipidic meal so that the plasma/os ratio passes from 0.09 to 0.55.

[2] = Plasma and brain levels of βBA and AKBA via os in mice (Gerbeth K et al. 2013); type: in vivo
From the text: βBA appears not to undergo blood-brain barrier. According to the data of Gerbeth K et al. 2013, brain levels of AKBA were very low, resulting 0.4 per AKBA in the brain/plasma ratio (but 0.81 according to Weber C C et al. 2006). In contrast, the § BA concentration in the brain was even higher than that found in the blood with 32% increase (See Table 1).

[3] = healthy volunteers, via os, cited from earlier work
[4] = cited from earlier work
[5] = cited from earlier work; remark: listed apart in the source
[6] = Weber C C et al. 2006; cited from earlier work
[7] = mice; cited from earlier work
[8] = cited from earlier work; remark: listed apart in the source
intact mice = assay: Behavioral tests on intact animals (open field, freezing); type: in vivo; settings: for lowest dose showing antidepressant effects: intact mice, preliminary experiments (unpublished observations); for effect in behavioral tests, individually: mouse, in vivo
Method: The trials were performed at the Department of Clinical and Experimental Medicine of the University of Foggia according to the following rationale. • 1. In the present mouse model of beta-amyloid toxicity, using validated tests in mice, we evaluated the behaviors: • a. antidepressant: Tail Suspension Test (TST); Forced Swimming Test (FST); Splash Test (ST) with latency time (sec) and self-care (sec) measurement. • b. antianxiety: Open Field Test with measurement of distance traveled (m), time spent in the wall (sec), time spent in the center (sec), center entries (n); Freezing Test (sec). • c. on memory, learning, coordination of motor skills, fear conditioning: Rotarod Test with measure of Latency to Fall, repeated after training to evaluate motor learning. • 2. We tested the protective effects with the following procedure: • a. individually: βCP, FE, βBA, DHA and HA4; • b. in association with pairs: βCP+HA4, FE+HA4, βBA+HA4, FE+βCP, βBA+FE, βBA+βCP. • c. in association, all four together: βCP+FE+βBA+HA4 • d. versus control (SHAM), • e. using the mouse model of an Aβ-induced depressive phenotype. • 3. These behavioral tests were integrated with serotonin, dopamine, noradrenaline and their metabolites prefrontal cortex and hippocampus measurement. • 4. Furthermore, we evaluated the cortical and hippocampal glutamate (GLU) levels in mice treated with AP and subsequently we tested the ability of βCP, FE, βBA and HA4, to modulate this neurochemical parameter.
βCP, FE e βBA (Merck, Cayman Chemical Company) was dissolved in sunflower oil, this vehicle was chosen in order to maintain a better tasting and higher density of the final solution thus reducing reflux through the digestive tract.
(§1) Ten μl of the solution (or vehicle alone) were administered sublingually to mice. Brain βCP, FE e βBA were quantified in a separate subset of mice at 5, 15 and 30 min after their administration.
Open Field Test. Mice were placed in an open field arena and allowed to explore for 30 min [Lama A et al. 2021]. After each trial, the arena floor was cleaned with 70% ethanol to avoid inter-assay bias. The movements of mice were video recorded and analyzed by ANY-maze tracking software (Ugo Basile-Varese, Gemonio, Italy). Locomotion was evaluated through total crossing measurements.

kynurenine (KYN) = assay: Kynurenine levels in mice treated with Aβ icv (FIG. 6); type: in vivo; settings: prefrontal cortex and hippocampus, HA4 0.2 mg/mouse
Method: (§2) The Aβ1-42, obtained from Tocris (Bristol, UK), was dissolved in sterile double-distilled pyrogenic-free water, as vehicle, to obtain a final concentration 4 μM [Colaianna M et al. 2010]. Mice were anesthetized with a solution (0.85 in ml/kg, i.p.), containing ketamine (Sigma Aldrich, Milan, Italy, 100 mg/10 ml), xylazine (Sigma Aldrich, Milan, Italy, 100 mg/10 ml) and acepromazine (prequillant, ATI Azienda Terapeutica Veterinaria Srl, 10 mg/10 ml) dissolved in saline solution. Animals were secured in a stereotaxic frame (David Kopf Instruments, Tujunga, CA, USA) and the peptide injection was accomplished in the lateral ventricle of mice at the following coordinates: AP=−0.2, ML=+1 e DV=2 relative to bregma, according to the atlas of Paxinos and Franklin [Paxinos G and Franklin K B J 2019]. […] At the time of dissection, the correct needle track was assessed. […]
(§3) 5-HT, noradrenaline (NA), and KYN levels were measured in the PFC and HIPP of mice by HPLC coupled with an electrochemical detector (Ultimate ECD, Thermo Scientific Dionex, Milan, Italy) as already reported [Francavilla M et al. 2012, Morgese M G et al. 2016]. […] GLU concentrations were determined by HPLC coupled with fluorescence detection (emission length 460 nm; excitation length 340 nm), as previously published [Francavilla M et al. 2012]. […]

glutamate (GLU) = assay: Glutamate levels in mice treated with Aβ icv (FIG. 7); type: in vivo; settings: after 7 days
Method: as §2, §3

CD11b = CD11b protein levels in mice treated with Aβ icv, Western blotting (FIG. 8); type: in vivo; settings: PFC and HIPP, HA4 0.2 mg/mouse
Method: (§4) The total amount of proteins was measured in homogenates by using Pierce BCA Assay (Thermo Fisher Scientific, Cleveland, OH, USA). […] After HRP-conjugated specific antibody incubation, ECL reagent (Bio-Rad Laboratories Inc., Segrate (MI), Italy) was added to the immune complex and chemiluminescence was detected by ChemiDoc MP system (Bio-Rad Laboratories Inc., Segrate (MI), Italy). Optical densities of the bands were measured using Image J software (http://rsb.info.nih.gov/ij/ accessed on 15 Mar. 2021) and normalized against bands relative to -actin (1:5,000, Abcam, Cambridge, UK).

GFAP = GFAP protein levels in mice treated with Aβ icv, Western blotting (FIG. 9); type: in vivo; settings: PFC and HIPP, HA4 0.2 mg/mouse
Method: as §4

mice treated with Aβ icv = assay: Splash test in SHAM mice and mice treated with Aβ icv (FIG. 4); type: in vivo; settings: after 7 days, HA4 200 μg, βCP 50 μg, βBA 100 μg, FE 50 μg sublingually
Method: The Aβ1-42, obtained from Tocris (Bristol, UK), was dissolved in sterile double-distilled pyrogenic-free water, as vehicle, to obtain a final concentration 4 μM [Colaianna M et al. 2010]. Mice were anesthetized with a solution (0.85 in ml/kg, i.p.), containing ketamine (Sigma Aldrich, Milan, Italy, 100 mg/10 ml), xylazine (Sigma Aldrich, Milan, Italy, 100 mg/10 ml) and acepromazine (prequillant, ATI Azienda Terapeutica Veterinaria Srl, 10 mg/10 ml) dissolved in saline solution. […] At the time of dissection, the correct needle track was assessed. […]
as §1
All behavioral experiments were conducted at 5 or 30 min after sublingual administrations of βBA or vehicle in mice treated with SHAM or AP. Based on the observed behavioral results, neurochemical and biochemical quantifications were performed 30 min after administration of βCP, FE, and βBA or vehicle in SHAM- or Aβ-treated mice.
Splash test. […] The test was videotaped and later an observer, blind to the trial, scored for latency to the first grooming event and duration of self-care behavior during the period of the test (5 min).

dopamine (DA) = assay: Dopamine (DA) levels in Aβ icv-treated mice (FIG. 5c); type: in vivo; settings: HIPP
[9] = in vivo; cited from earlier work
[10] = cited from earlier work; remark: listed apart in the source
[11] = mice, cited from earlier work
[12] = intact animals, hyaluronic acid only (FIG. 3)

## CC(=O)O[C@@H]1CC[C@@]2(C)[C@@H](CC[C@]3(C)[C@@H]2C(=O)C=C2[C@@H]4[C@@H](C)[C@H](C)CC[C@]4(C)CC[C@]23C)[C@@]1(C)C(=O)O [AKBA, acetyl-11-keto-beta-boswellic acid]
[1]; fasted conditions
  Δos/plasma: 68 fasted
[1]; hyperlipidic fed conditions
  Δos/plasma: 15 hyperlipidic
[2]
  Δos/brain: 204
  Δos/plasma: 82
  Δplasma/brain: 2.5
[3]; fasted conditions
  concentration in the plasma: 6 fasted ng/g o ng/ml
[3]; hyperlipidic fed conditions
  concentration in the plasma: 28 hyperlipidic ng/g o ng/ml
[4]; 80 mg AKBA to 13 patients, found in only one of them
  blood concentration: 15.5 ng/mL
[4]; patients, via os
  concentration in the plasma: 0-15 ng/g o ng/ml
[5]; Gerbeth K et al. 2013
  brain/plasma ratio: 0.4
[5]; mice, via os, intestinal mucosa to blood
  reduction of blood concentration compared to the dose introduced orally: 80 times
[5]; mice, via os
  concentration in the brain: 37.5 ng/g o ng/ml
  concentration in the plasma: 93 ng/g o ng/ml
[5]; mice
  reduction of concentration when crossing the blood-brain barrier: more than twice
[6]
  brain/plasma ratio: 0.81

## CC/C=C\C/C=C\C/C=C\C/C=C\C/C=C\C/C=C\CCC(=O)O [DHA, docosahexaenoic acid]
[7]
  safe dose: ≤ 3.2 g/kg/day
[8]; adult humans
  harmless dose: at least 7.5 g/day
[8]; children
  safe dose: at least 315 mg/day

## CC1=CC=C[C@]2(C)Cc3occ(C)c3C[C@@H]12 [FE, furanoeudesma-1,3-diene]
Intact mice
  lowest dose showing antidepressant effects: 5 mg/kg
  effect in behavioral tests, individually: antidepressant and anxiolytic effect

## CC(=O)N[C@H]1[C@H](O[C@H]2[C@H](O)[C@@H](O)[C@H](O[C@H]3[C@H](O)[C@@H](CO)OC(O)[C@@H]3NC(C)=O)O[C@@H]2C(=O)O)O[C@H](CO)[C@@H](O)[C@@H]1O[C@@H]1O[C@H](C(=O)O)[C@@H](O)[C@H](O)[C@H]1O (stereo partly shown) [HA4, hyaluronic acid HA4 tetrasaccharide]
Intact mice; [12]
  freezing: clear anxiolytic and antidepressant effect
  locomotor activity: does not create deficits in the animal's locomotor activity
Intact mice
  effect in behavioral tests, individually: antidepressant and anxiolytic effect
Kynurenine (KYN)
  Kynurenine levels: significant reduction
Glutamate (GLU)
  Glutamate levels: increase in glutamate
CD11b
  CD11b protein levels: Significant reduction of CD11b in both PFC and HIPP
GFAP
  GFAP protein levels: significant reduction; also recorded: removes GFAP alterations in both PFC and HIPP

## C=C1CC/C=C(\C)CC[C@@H]2[C@@H]1CC2(C)C [βCP, β-caryophyllene]
Intact mice
  lowest dose showing antidepressant effects: 5 mg/kg
  effect in behavioral tests, individually: antidepressant and anxiolytic effect
Mice treated with Aβ icv
  Splash test latency time (antidepressant effect): antidepressant effect
Dopamine (DA)
  Dopamine (DA) levels: increase in dopaminergic activity in HIPP
[9]
  toxic dose (category 5 substance, OECD guidelines): greater than 2,000 mg/kg
[10]; mice, 100 mg/kg i.p.
  pathological changes: no evidence of pathological changes
[10]; mouse, in vivo, ip
  LD50: 316 mg/kg

## Hyaluronic acid
[11]; intraperitoneum
  LD50: 1,500 mg/kg
[11]; subcutaneous
  LD50: > 4,000 mg/kg
[11]; via os
  LD50: > 2,400 mg/kg
